Test results taken from patent US20250312469A1 (CANGET BIOTEKPHARMA, priority 2024, published 2025).
“And” between values parts separate entries of the source, which are not always exact repeats. Equal values may be shown once.

How the values were obtained:
Agrin mRNA = assay: Real-time RT-PCR of Agrin mRNA in Panc-1 and MiaPaca2 cells; type: cell-based, human
Procedure: Real time quantitative (q) RT-PCR: Real time RT-PCR methods were described previously (9, 56). Pertinent to this study, total RNAs were extracted from cancer cells using TRI REAGENT RT (Molecular Research Center), and 5 μg per sample was converted to cDNA with anchored oligo (dT) primers using RevertAid First Strand cDNA Synthesis Kit (Thermo Fisher Scientific, Catalog No. K1622) following the manufacturer's instructions. Individual reverse transcription (RT) reactions of 20 μL were then diluted to 200 μL with sterile H2O. Five microliters of diluted RT reaction were used for real-time qPCR using Maxima SYBR Green/ROX qPCR Master Mix (2×, Thermo Fisher Scientific, Catalog No. K0223). The primers used in qPCR were as follows: 5′-GGC GCA CAG CAC AAG AGG-3′ (DDX5 qPCR-F, forward) and 5′-ATGGCAGGAAGCAAATAAGACAA-3′ (DDX5 qPCR-R, reverse); 5′-CTTCTGCTTCAAGGAGCTGGAAG-3′ (hsv5p2, survivin, forward) and 5′-GCACTTTCTTCGCAGTTTCCTC-3′ (hvs3p2, survivin, reverse); 5′-CCACAGCAAACCTCCTCACAG-3′ (myc5, c-Myc, forward) and 5′-GCAGGATAGTCCTTCCGAGTG-3′ (myc3, c-Myc, reverse); 5′-GTCTCCTCTGACTTCAACAGCG-3′ (hGAPDH-5, forward) and 5′-ACCACCCTGTTGCTGTAGCCAA-3′ (hGAPDH-3, reverse). GAPDH was used as an internal control. […] The data were analyzed using the Applied Biosystems 7300 Real Time PCR System and normalized to GAPDH.

[1] = PK after single oral dose in tumor bearing mice
human hepatocytes = assay: Cell viability (MTS) after CYP induction treatment
Procedure: Vehicle controls were treated in parallel with hepatocyte culture medium. […] (2) After the CYP induction treatment, the cells were used for a cell viability assay. […] The absorbance of formazan, which is proportional to the number of viable cells, was measured spectrophotometrically using the CellTiter 96 AQueous ONE Solution Cell Proliferation Assay. […] (3) Total RNA was isolated from the treated cells using the RNeasy mini kit (Qiagen, Valencia, CA, USA) and treated with RNase-free DNase (Qiagen) following the manufacturer's protocols. The concentration of RNA was determined using a Qubit Fluorometer with a Qubit RNA HS assay kit (Invitrogen). cDNA was synthesized from up to 1 μg of the total RNA harvested from the cells using a QuantiTect RT kit (Qiagen). Analysis of gene expression by qPCR was performed using the LightCycler 480 System (Roche Diagnostics Corporation, Indianapolis, IN, USA).

in vivo = conditions: SCID, mouse, po
[2] = test system: LAPC9-AI vs. LAPC9-AD cells; assay: LAPC9 organoid assay; type: cell-based
[3] = test system: Panc-1 and MiaPaca-2 cells; assay: 3D cell spheroid formation and viability; type: cell-based, human
Procedure: 3D) cell spheroid formation studies: Pancreatic cancer cells were cultured in the ultra-low attachment plates in the pancreatic cancer organoid culture medium. In some studies, to observe the spheroid formation, DDX5 KO pancreatic cancer cells in the presence and absence of Agrin at a concentration of 2.5 μg/mL, 5 μg/mL and/or 10 μg/mL for 6-7 days were cultured. […] Representative images were take during this time and cell viability was determined by MTT assay.

[4] = FL118 drug substance chemical stability (HPLC)
[5] = HT29 tumor, single oral dose […]
[6] = SW620 tumor, single oral dose […]
[7] = mouse plasma, single oral dose […]

What does the source list for `CCC1(O)C(=O)OCc2c1cc1n(c2=O)Cc2cc3cc4c(cc3nc2-1)OCO4` (centres unmarked) [FL118]?
Agrin mRNA (Agrin mRNA): inhibits Agrin mRNA; Cl [1, 5]: 8,440 g/hr/kg; Tmax [1, 5]: 1.00 h; VD [1, 5]: 51,700 g/kg; t1/2 [1, 5]: 4.24 h; Cl ([1]; HT29 tumor, p.o. […]): 8,440 g/hr/kg; VD ([1]; HT29 tumor, p.o. […]): 51,700 g/kg; Cl [1, 6]: 6,710 g/hr/kg; Tmax [1, 6]: 1.00 h; VD [1, 6]: 28,900 g/kg; t1/2 [1, 6]: 2.99 h; Cl ([1]; SW620 tumor, p.o. […]): 6,710 g/hr/kg; VD ([1]; SW620 tumor, p.o. […]): 28,900 g/kg; concentration that can be reached in cancer cells ([1]; from the PK studies): ≤ 25 nM; Cl [1, 7]: 17,000 mL/hr/kg; Tmax [1, 7]: 0.500 h; VD [1, 7]: 126,000 mL/kg; t1/2 [1, 7]: 5.12 h; FL118 concentration, individual mice ([1]; plasma, 1.0 h, single oral dose […]): 19.1 ng/mL; FL118 concentration, individual mice ([1]; plasma, 4.0 h, single oral dose […]): 4.78 ng/mL; Cl ([1]; plasma, p.o. […]): 17,000 mL/hr/kg; VD ([1]; plasma, p.o. […]): 126,000 mL/kg; % of Vehicle-treated Cells (human hepatocytes; donor 1, 0.01 μM): 91%; Formazan Absorbance Mean (human hepatocytes; donor 1, 0.01 μM): 1.48; % of Vehicle-treated Cells (human hepatocytes; donor 1, 0.1 μM): 73%; Formazan Absorbance Mean (human hepatocytes; donor 1, 0.1 μM): 1.20; % of Vehicle-treated Cells (human hepatocytes; donor 1, 1 μM): 31%; Formazan Absorbance Mean (human hepatocytes; donor 1, 1 μM): 0.512; cytotoxicity (human hepatocytes; donor 1, 0.1 and 1 μM): dose-dependent cytotoxicity; % of Vehicle-treated Cells (human hepatocytes; donor 2, 0.001 μM): 103%; Formazan Absorbance Mean (human hepatocytes; donor 2, 0.001 μM): 1.53; % of Vehicle-treated Cells (human hepatocytes; donor 2, 0.005 μM): 101%; Formazan Absorbance Mean (human hepatocytes; donor 2, 0.005 μM): 1.51; % of Vehicle-treated Cells (human hepatocytes; donor 2, 0.01 μM): 99%; Formazan Absorbance Mean (human hepatocytes; donor 2, 0.01 μM): 1.48; cytotoxicity (human hepatocytes; donor 2, 0.001 to 0.01 μM): No cytotoxicity; % of Vehicle-treated Cells (human hepatocytes; donor 3, 0.025 μM): 94%; Formazan Absorbance Mean (human hepatocytes; donor 3, 0.025 μM): 1.63; % of Vehicle-treated Cells (human hepatocytes; donor 3, 0.05 μM): 104%; Formazan Absorbance Mean (human hepatocytes; donor 3, 0.05 μM): 1.80; cytotoxicity (human hepatocytes; donor 3, 0.025 and 0.05 μM): did not show cytotoxicity; MTD at 4 weekly doses (in vivo): ~10 mg/kg; toxicity to AR−/lo LAPC9-AI vs AR+ LAPC9-AD cells [2]: selective toxicity; 3D spheroid formation [3]: inhibited; cell viability in 3D culture [3]: inhibited in a FL118 concentration-dependent manner; Hygroscope [4]: 0.07% and 0.20% and 0.38%; purity and impurity retest [4]: still well passing the purity and impurity requirement
